We go through 4 compounds from ChEMBL document CHEMBL1201862, “PubChem BioAssay data set” (2004).

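Test compounds were applied to cells in 96-well plates for 48 hours at 5 doses. Abbreviation: GI50, concentration required for 50% inhibition of growth.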 The source made the active and inactive calls. Rule as the data show it: active = GI50 up to about 1.1 µM and inactive = higher.

What all share (experiment): NCI-60 cell line screen, 48 h
The test system of assay [1] is HCC 2998.
For assay [2], the system named is NCI-H522.
Assay [3] deals with SF-295.
Assay [4] has as its system HOP-92.
For assay [5], the system named is A498.
For assay [6], the system named is MOLT-4.
Assay [7] deals with SK-MEL-5.
Assay [8] relates to Hs-578T.
For assay [9], the system named is IGROV-1.
The subject of assay [10] is KM12.
Assay [11] concerns NCI-H23.
The subject of assay [12] is COLO 205.
Assay [13] relates to EKVX.
Assay [14] concerns HT-29.
Assay [15] relates to RXF 393.
For assay [16], the system named is RPMI-8226.
The test system of assay [17] is PC-3.
Assay [18] deals with HOP-62.
The subject of assay [19] is SK-MEL-2.
For assay [20], the system named is MDA-MB-231.

As for `C=CCN1C(=O)CC1N(CC=C)S(=O)(=O)c1ccc(C)cc1` (stereo not drawn), the GI50 in assay [1], in assay [2], in assay [3], in assay [4], in [5] and in [6] was > 100 µM (inactive) in each case. Besides, the GI50 in assay [7], in assay [8], in assay [9], in [10], in assay [11] and in assay [12] was > 100 µM (inactive) in each case. Further, the GI50 in assay [13], in [14], in assay [15], in assay [16] and in [17] was > 100 µM (inactive) each time.

Regarding `O=C(O)Cc1ccc(Nc2nc3ccccc3nc2C(=O)O)cc1`, the GI50 in assay [2], in [3], in assay [4], in assay [5], in assay [18] and in [6] was > 100 µM (inactive) in each case. The GI50 in assay [7], in assay [8], in [9], in [10], in assay [11] and in assay [12] was > 100 µM (inactive) throughout. The GI50 in assay [13], in assay [14], in assay [19], in assay [15] and in assay [17] was > 100 µM (inactive) in each case.

Take `CP(=O)(O)C(N)c1ccccc1` (stereo not drawn): the GI50 in assay [2], in [3], in [4], in [18], in assay [6] and in assay [7] was > 100 µM (inactive) throughout. Moreover, the GI50 in assay [8], in assay [9], in assay [10], in assay [11], in assay [12] and in assay [13] was > 100 µM (inactive) each time. Moreover, the GI50 in assay [14], in assay [16] and in [17] was > 100 µM (inactive) each time.

Consider `C/C(=N\Nc1nc2ccccc2s1)c1cc2ccccc2cn1`, for which the GI50 was 7.76 µM (inactive) in assay [1]; 4.78 µM (inactive) in assay [2]; 3.7 µM (inactive) in assay [3]; 8.63 µM (inactive) in assay [4]; 10.9 µM (inactive) in assay [5]; 4.88 µM (inactive) in assay [20]. The GI50 in assay [18] was 3.2 µM (inactive); in [6] it was 0.41 µM (active); in [7] it was 3.18 µM (inactive); in [9] it was 1.61 µM (inactive); in assay [10] it was 4.89 µM (inactive); in [11], 3.21 µM (inactive). For the same compound, the GI50 in [12] is 1.52 µM (inactive); in [13], 3.34 µM (inactive); in [14], 3.31 µM (inactive); in assay [19], 6.79 µM (inactive); in assay [15] it was 3.61 µM (inactive); in assay [16], 3.21 µM (inactive). Also, in [17], the GI50 is 5.42 µM (inactive).
